Test results taken from patent EP2489663A1, “Compounds as syk kinase inhibitors” (Almirall, S.A., priority 2011, dated 2012).

How the values were obtained:
LAD2 cells = LAD2 cells assay (mast cell degranulation, β-hexosaminidase release); type: cell-based; conditions: Homo sapiens, 0.5 h; biotin-labeled IgE sensitized LAD2 cells, compound 30 min, activated with 125 ng/mL streptavidin 30 min, released β-hexosaminidase
Excerpt: LAD2 is a human mast cell line depending on stem cell factor for its survival, maturation and differentiation. This mast cell line was established by the NIH from bone marrow aspirates from a patient with mast cell sarcoma. LAD2 cells resemble CD34+ - derived human mast cells as they have granules containing tryptase, histamine and β-hexosaminidase. They also express c-kit and FcεRI (Kirshenbaum, et al., Leukemia Research 27: 677-682, 2003).
Sensitization of LAD2 cells
Cells were sensitized (0.2x10^6 cells/mL) in its normal growth factor (Complete StemPro-34 SFM, Gibco 10639-011 containing StemPro-34 nutrient supplement (1/40); glutamine (2 mM) and supplemented with 100 ng/ml SCF) by adding 100 ng/mL of biotin-labeled IgE (USBiological) overnight (16-18 h, 37º, 5% CO2) in a humidified atmosphere (90%).
Compounds were prepared from a 10^-2M stock in 100% DMSO to give seven successive 1/3 dilutions in DMSO. From each concentration, 2 further 1/10 dilutions were prepared in release buffer (137 mM NaCl, 2.70 mM KCI, 0.4 mM NaH2PO4, 5.6 mM (D)-glucose, 1.8 mM CaCl2, 1.3 mM MgSO4, 0.025% BSA). Finally, 5 µl from each diluted concentration were transferred into the assay plate (flat 96-well Nunc). The final compound concentrations tested ranged from 1x10^-5M to 4.12x10^-9M with a final proportion of DMSO in the assay of 0.1%. Control wells were treated with 0.1 % DMSO.
Sensitized LAD2 cells were centrifuged (300 g, 3 min, R.T.) and washed 2 times with release buffer. Cells were resuspended in release buffer and adjusted to a density of 0.2x10^6/mL. 45 µL of the adjusted cells were transfered to the assay plate (∼10,000cells/well) containg 5 µL of the final compound concentrations. LAD2 cells were incubated with the compound for 30 min (37 °C, 5% CO2 90% of humidity) and then activated with 125 ng/mL of streptavidin (Pierce 21125) for 30 min (37°C, 5% CO2, 90% of humidity). After the activation, cells were centrifuged at 1200 g, 10 min, 12 °C and supernatats were removed and transfered to another well for determination of released β-hexosaminidase. Empty wells were filled with 50 µL of release buffer for determination of intracellular β-hexosaminidase. Cells were lysed with 2 cycles of freeze-thaw.
Cells were incubated for 90 minutes, 37 °C with 1 mM β-hexosaminidase substrate (p-nitrophenyl N-acetyl-D-glucosamide, in citric buffer, pH 4.5). Reaction was stopped with 0.4 M glycine solution (pH 10.0) and the plate is read immediately at 405 nm.

human full-length Syk = molecular target: T1, human full-length Syk (Homo sapiens, UniProt P43405); assay: Syk Enzyme assay - Radioactive filtration kinase assay; type: biochemical; conditions: recombinant human full-length Syk 1 nM, poly-GT substrate, [γ-33P] ATP, 40 min room temperature
T1 construct: Recombinant human full-length Syk was supplied by Millipore; purchased Millipore
Description: Syk Enzyme assay- Radioactive filtration kinase assay
Recombinant human full-length Syk was supplied by Millipore. The activity of Syk kinase was assessed using a radioactive filtration kinase assay.
10 µL of substrate poly-GT (100 µg/mL final) and 4 µl of Syk (1 nM final) in 50 mM Tris-HCl (pH 7.5), 0.1 mM EGTA, 4 mM Mg(CH3COO)2, 0.1 mM Na3VO4, 0.1% (v/v) β-mercaptoethanol, 0.133 mg/mL BSA (bovine serum albumin) were added to 1.5 µl of various concentrations of compound or DMSO vehicle (5% final). The reaction was initiated by the addition of 14.5 µL of 0.36 µCi [γ-^33P] ATP (adenosine tri-phosphate) (10 mCi/ml, PerkinElmer). This was prepared in a half-area NBS plate (Corning) and allowed to stand at room temperature for 40 min.
15 µL of reaction mixture was transferred to a filter plate (Millipore) previously prewetted with a solution of 75 mM phosphoric acid. The reaction was terminated with the addition of 200 µL phosphoric acid. The filter plate was washed three times under vacuum on a vacuum manifold (Millipore cat# MSVMHTS00) at 8" Hg vacuum level with 200 µL phosphoric acid per wash.
30 µL Optiphase™ Supermix (PerkinElmer) was added to each test well and allowed to incubate for at least 1 h before counting. Radioactivity counting was performed in a Wallac MicroBeta®, and the tyrosine phosphorylation activity by Syk was calculated.

Row | SMILES | IC50 (human full-length Syk) | IC50 (LAD2 cells)
1 | c1cnc(Nc2nn(-c3ccnc(N4C[C@@H]5C[C@H]4CN5)c3)c3cc(C4CC4)ccc23)cn1 [Example 58, 6-cyclopropyl-1-{2-[(1S,4S)-2,5-diazabicyclo[2.2.1]hept-2-yl]pyridin-4-yl}-N-pyrazin-2-yl-1H-indazol-3-amine] | 4 nM | 266 nM
2 | Cc1ccnc(Nc2nn(-c3ccnc(N4C[C@@H]5C[C@H]4CN5)c3)c3cc(O)ccc23)c1 [Example 88, 1-{2-[(1S,4S)-2,5-diazabicyclo[2.2.1]hept-2-yl]pyridin-4-yl}-3-[(4-methylpyridin-2-yl)amino]-1H-indazol-6-ol] | 5 nM | 364 nM
3 | O=S(=O)(Nc1ccc2c(Nc3cnccn3)nn(-c3ccnc(N4C[C@@H]5C[C@H]4CN5)c3)c2c1)c1ccccc1 [Example 30, N-[1-{2-[(1S,4S)-2,5-Diazabicyclo[2.2.1]hept-2-yl]pyridin-4-yl}-3-(pyrazin-2-ylamino)-1H-indazol-6-yl]benzenesulfonamide] | 20 nM | 
4 | O=C(c1ccc2c(Nc3cnccn3)nn(-c3ccnc(N4C[C@@H]5C[C@H]4CN5)c3)c2c1)N1CCCCC1 [Example 21, 1-{2-[(1S,4S)-2,5-Diazabicyclo[2.2.1]hept-2-yl]pyridin-4-yl}-6-(piperidin-1-ylcarbonyl)-N-pyrazin-2-yl-1H-indazol-3-amine] | 10.5 nM | 342 nM
5 | c1ccc2c(c1)c(Nc1cnccn1)nn2-c1ccnc(N2C[C@@H]3C[C@H]2CN3)c1 [Example 10, 1-{2-[(1S,4S)-2,5-Diazabicyclo[2.2.1]hept-2-yl]pyridin-4-yl}-N-pyrazin-2-yl-1H-indazol-3-amine] | 7.4 nM | 55 nM
6 | c1ccc2c(c1)c(Nc1cnccn1)nn2-c1cc(N2C[C@@H]3C[C@H]2CN3)ccn1 [Example 69, 1-{4-[(1S,4S)-2,5-Diazabicyclo[2.2.1]hept-2-yl]pyridin-2-yl}-N-pyrazin-2-yl-1H-indazol-3-amine] | 13 nM | 263 nM
7 | COc1ccc2c(Nc3cnccn3)nn(-c3cc(N4C[C@@H]5C[C@H]4CN5)ncn3)c2c1 [Example 56, 1-{6-[(1S,4S)-2,5-diazabicyclo[2.2.1]hept-2-yl]pyrimidin-4-yl}-6-methoxy-N-pyrazin-2-yl-1H-indazol-3-amine] | 15 nM | 179 nM
8 | COCCOc1ccc2c(Nc3cnccn3)nn(-c3ccnc(N4C[C@@H]5C[C@H]4CN5)c3)c2c1 [Example 61, 1-{2-[(1S,4S)-2,5-diazabicyclo[2.2.1]hept-2-yl]pyridin-4-yl}-6-(2-methoxyethoxy)-N-pyrazin-2-yl-1H-indazol-3-amine] | 12 nM | 136 nM
9 | Cc1nc(N2C[C@@H]3C[C@H]2CN3)cc(-n2nc(Nc3cnccn3)c3ccccc32)n1 [Example 42, 1-{6-[(1S,4S)-2,5-Diazabicyclo[2.2.1]hept-2-yl]-2-methylpyrimidin-4-yl}-N-pyrazin-2-yl-1H-indazol-3-amine] | 9 nM | 254 nM
10 | Oc1ccc2c(Nc3cnccn3)nn(-c3cncc(N4C[C@@H]5C[C@H]4CN5)c3)c2c1 [Example 63, 1-{5-[(1S,4S)-2,5-Diazabicyclo[2.2.1]hept-2-yl]pyridin-3-yl}-3-(pyrazin-2-ylamino)-1H-indazol-6-ol] | 11 nM | 363 nM
11 | Cc1ccc2c(Nc3cnccn3)nn(-c3cncc(N4C[C@@H]5C[C@H]4CN5)c3)c2c1 [Example 71, 1-{5-[(1S,4S)-2,5-diazabicyclo[2.2.1]hept-2-yl]pyridin-3-yl}-6-methyl-N-pyrazin-2-yl-1H-indazol-3-amine] | 5 nM | 111 nM
12 | COc1ccc2c(Nc3cnccn3)nn(-c3cccc(N4C[C@@H]5C[C@H]4CN5)c3)c2c1 [Example 89, 1-{3-[(1S,4S)-2,5-diazabicyclo[2.2.1]hept-2-yl]phenyl}-6-methoxy-N-pyrazin-2-yl-1H-indazol-3-amine] | 16 nM | 160 nM

More lines, main results first:

Row | IC50 (human full-length Syk) | SMILES | IC50 (LAD2 cells)
13 | 6 nM | Cc1ccc2c(Nc3cnccn3)nn(-c3ccnc(N4C[C@@H]5C[C@H]4CN5)c3)c2c1 [Example 55, 1-{2-[(1S,4S)-2,5-Diazabicyclo[2.2.1]hept-2-yl]pyridin-4-yl}-6-methyl-N-pyrazin-2-yl-1H-indazol-3-amine] | 142 nM
14 | 17 nM | c1ccc2c(c1)c(Nc1cnccn1)nn2-c1ccnc(N2CCCNCC2)c1 [Example 8, 1-[2-(1,4-Diazepan-1-yl)pyridin-4-yl]-N-pyrazin-2-yl-1H-indazol-3-amine] | 
15 | 11 nM | C[C@H]1CNCCN1c1cc(-n2nc(Nc3cnccn3)c3ccccc32)ccn1 [Example 50, 1-{2-[(2S)-2-methylpiperazin-1-yl]pyridin-4-yl}-N-pyrazin-2-yl-1H-indazol-3-amine] | 80 nM
16 | 8 nM | COc1ccc2c(Nc3cnccn3)nn(-c3ccnc(N4C[C@@H]5C[C@H]4CN5)c3)c2c1 [Example 31, 1-{2-[(1S,4S)-2,5-Diazabicyclo[2.2.1]hept-2-yl]pyridin-4-yl}-6-methoxy-N-pyrazin-2-yl-1H-indazol-3-amine] | 111 nM
17 | 17 nM | COc1ccc2c(Nc3cnccn3)nn(-c3ccnc(N4CCCNCC4)c3)c2c1 [Example 62, 1-[2-(1,4-diazepan-1-yl)pyridin-4-yl]-6-methoxy-N-pyrazin-2-yl-1H-indazol-3-amine] | 169 nM
18 | 11 nM | COc1ccc2c(Nc3cnccn3)nn(-c3ccnc(N4CCNC[C@@H]4C)c3)c2c1 [Example 76, 6-Methoxy-1-{2-[(2S)-2-methylpiperazin-1-yl]pyridin-4-yl}-N-pyrazin-2-yl-1H-indazol-3-amine] | 137 nM
19 | 15 nM | Oc1ccc2c(Nc3cnccn3)nn(-c3ccnc(N4CCCNCC4)c3)c2c1 [Example 86, 1-[2-(1,4-diazepan-1-yl)pyridin-4-yl]-3-(pyrazin-2-ylamino)-1H-indazol-6-ol] | 263 nM
20 | 2.5 nM | Nc1ccc2c(Nc3cnccn3)nn(-c3ccnc(N4C[C@@H]5C[C@H]4CN5)c3)c2c1 [Example 12, 1-{2-[(1S,4S)-2,5-Diazabicyclo[2.2.1]hept-2-yl]pyridin-4-yl}-N^3-pyrazin-2-yl-1H-indazole-3,6-diamine] | 167 nM
